Columns and labels:
SOLNI (black nightshade) = experiment: Pre-emergence herbicidal activity, warm season; format: in vivo, Solanum nigrum; conditions: GR80 = lowest tested rate (300, 100, 30, 10 g/ha) with 80% or greater inhibition; approx. 14 days after treating; 30/21° C.
Method in brief: (§1)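 Seeds sown in sterilised fertilised topsoil received surface-applied compound in 50:50 acetone/water, typically at 300, 100, 30 and 10 g/ha, then greenhouse-grown at 30/21° C (warm-season species) or 18/13° C (cool-season species). Percent inhibition versus untreated plants was scored at about 14 days, giving GR80; an asterisk marks activity short of 80% at the top rate.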

AMARE (redroot pigweed) = experiment: Pre-emergence herbicidal activity, warm season; format: in vivo, Amaranthus retroflexus; conditions: GR80 = lowest tested rate (300, 100, 30, 10 g/ha) with 80% or greater inhibition; approx. 14 days after treating; 30/21° C.
Method in brief: as §1

[1] = tested on: CHEAL (common lambsquarters); experiment: Pre-emergence herbicidal activity, warm season; format: in vivo, Chenopodium album; conditions: GR80 = lowest tested rate (300, 100, 30, 10 g/ha) with 80% or greater inhibition; approx. 14 days after treating; 30/21° C.
Method in brief: as §1

[2] = tested on: CIRAR (canada thistle (seedling)); experiment: Pre-emergence herbicidal activity, warm season; format: in vivo, Cirsium arvense; conditions: GR80 = lowest tested rate (300, 100, 30, 10 g/ha) with 80% or greater inhibition; approx. 14 days after treating; 30/21° C.
Method in brief: as §1

ECHCG (barnyardgrass) = experiment: Pre-emergence herbicidal activity, warm season; format: in vivo, Echinochloa crus-galli; conditions: GR80 = lowest tested rate (300, 100, 30, 10 g/ha) with 80% or greater inhibition; approx. 14 days after treating; 30/21° C.
Method in brief: (§2)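 Activity is expressed as the rate giving 80% inhibition, with 300, 100, 30 and 10 g/ha typically tested. An asterisk marks activity short of 80% at the top rate. Warm-season grasses were held at 30/21 °C; cool-season blackgrass and wild buckwheat at 18/13 °C; scoring at about 14 days.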

[3] = tested on: PANMI (wild proso millet); experiment: Pre-emergence herbicidal activity, warm season; format: in vivo, Panicum miliaceum; conditions: GR80 = lowest tested rate (300, 100, 30, 10 g/ha) with 80% or greater inhibition; approx. 14 days after treating; 30/21° C.
Method in brief: (§3)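 Read-out: GR80, derived from percent growth inhibition relative to untreated plants at roughly 14 days after planting and treatment. Compounds went onto the surface of freshly seeded soil at 10–300 g/ha. Day/night regimes were 30/21 °C for millet and crabgrass, 18/13 °C for blackgrass and buckwheat.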

[4] = tested on: SORHA (johnsongrass (seedling)); experiment: Pre-emergence herbicidal activity, warm season; format: in vivo, Sorghum halepense; conditions: GR80 = lowest tested rate (300, 100, 30, 10 g/ha) with 80% or greater inhibition; approx. 14 days after treating; 30/21° C.
Method in brief: as §2

SETFA (giant foxtail) = experiment: Pre-emergence herbicidal activity, warm season; format: in vivo, Setaria faberi; conditions: GR80 = lowest tested rate (300, 100, 30, 10 g/ha) with 80% or greater inhibition; approx. 14 days after treating; 30/21° C.
Method in brief: as §2

[5] = tested on: BRAPP (broadleaf signalgrass); experiment: Pre-emergence herbicidal activity, warm season; format: in vivo, Brachiaria platyphylla; conditions: GR80 = lowest tested rate (300, 100, 30, 10 g/ha) with 80% or greater inhibition; approx. 14 days after treating; 30/21° C.
Method in brief: as §2

DIGSA (large crabgrass) = experiment: Pre-emergence herbicidal activity, warm season; format: in vivo, Digitaria sanguinalis; conditions: GR80 = lowest tested rate (300, 100, 30, 10 g/ha) with 80% or greater inhibition; approx. 14 days after treating; 30/21° C.
Method in brief: as §3

[6] = tested on: GALAP (catchweed bedstraw); experiment: Pre-emergence herbicidal activity, cool season; format: in vivo, Galium aparine; conditions: lowest tested rate with 80% or greater inhibition; rates 300, 100, 30, 10 g/ha; about 14 days
Method in brief: as §1

POLCO (wild buckwheat) = experiment: Pre-emergence herbicidal activity, cool season; format: in vivo, Polygonum convolvulus; conditions: lowest tested rate with 80% or greater inhibition; rates 300, 100, 30, 10 g/ha; about 14 days
Method in brief: as §3

SINAR (wild mustard) = experiment: Pre-emergence herbicidal activity, cool season; format: in vivo, Sinapis arvensis; conditions: lowest tested rate with 80% or greater inhibition; rates 300, 100, 30, 10 g/ha; about 14 days
Method in brief: as §1

KCHSC (kochia) = experiment: Pre-emergence herbicidal activity, cool season; format: in vivo, Kochia scoparia; conditions: lowest tested rate with 80% or greater inhibition; rates 300, 100, 30, 10 g/ha; about 14 days
Experimental: (§4) Tables 5 to 8 summarize results of tests conducted as described below to determine the pre-emergence herbicidal activity, in the form of a GR80 value, of illustrative compounds of this invention. […] Compounds of the invention were typically applied at rates of 300, 100, 30, and 10 g/ha. Where herbicidal activity was evident but 80% inhibition was not achieved at the highest rate tested, an asterisk (*) is shown in the following tables.
(§5) The pre-emergence tests were conducted by the following procedure. Topsoil was sieved to pass through a 1.27 cm screen. Fertilizer was added to the topsoil and the mixture was then sterilized by heating. The topsoil mixture was placed in a pot and compacted to a depth of 1.0 to 1.25 cm from the top of the pot. Seeds of each of several monocotyledonous and dicotyledonous annual plant species were placed on top of the soil. Additional soil was subsequently placed over the seeds to level-fill the pot. A known amount of each test compound dissolved or suspended in an appropriate organic solvent was diluted with a 50:50 mix of acetone and water and applied to the surface of the soil. After treatment the plants were placed in a greenhouse where they received 0.64 cm of overhead irrigation. All subsequent watering consisted of a light overhead mist and/or subirrigation as needed for germination and growth. Tables 5 and 6 below relate to warm season plant species which were placed after pre-emergence treatment in a greenhouse with a 30/21° C. day/night temperature regime. Tables 7 and 8 below relates to cool season plant species placed after pre-emergence treatment in a greenhouse or growth chamber with an 18/13° C. day/night temperature regime.
(§6) Approximately 14 days after planting and treating, the plants were observed and herbicidal efficacy recorded as percent inhibition by comparison with untreated plants.
(§7) The plant species usually regarded as weeds which were utilized in the tests are identified in the tables below according to the following legend, in which “d” indicates a dicotyledonous species and “m” a monocotyledonous species. All monocotyledonous species included in the tests herein are grasses.

[7] = tested on: VERPE (creeping speedwell); experiment: Pre-emergence herbicidal activity, cool season; format: in vivo, Veronica persicaria; conditions: lowest tested rate with 80% or greater inhibition; rates 300, 100, 30, 10 g/ha; about 14 days
Method in brief: as §1

SASKR (russian thistle) = experiment: Pre-emergence herbicidal activity, cool season; format: in vivo, Salsola kali; conditions: lowest tested rate with 80% or greater inhibition; rates 300, 100, 30, 10 g/ha; about 14 days
Method in brief: as §1

STEME (common chickweed) = experiment: Pre-emergence herbicidal activity, cool season; format: in vivo, Stellaria media; conditions: lowest tested rate with 80% or greater inhibition; rates 300, 100, 30, 10 g/ha; about 14 days
Method in brief: as §1

[8] = tested on: LAMPU (purple deadnettle); experiment: Pre-emergence herbicidal activity, cool season; format: in vivo, Lamium purpureum; conditions: lowest tested rate with 80% or greater inhibition; rates 300, 100, 30, 10 g/ha; about 14 days
Method in brief: as §1

ALOMY (blackgrass) = experiment: Pre-emergence herbicidal activity, cool season; format: in vivo, Alopecurus myosuroides; conditions: GR80 = lowest tested rate (300, 100, 30, 10 g/ha) with 80% or greater inhibition; approx. 14 days after treating; 18/13° C.
Method in brief: as §3

SETVI (green foxtail) = experiment: Pre-emergence herbicidal activity, cool season; format: in vivo, Setaria viridis; conditions: GR80 = lowest tested rate (300, 100, 30, 10 g/ha) with 80% or greater inhibition; approx. 14 days after treating; 18/13° C.
Method in brief: as §1

[9] = tested on: AGSST (creeping bentgrass); experiment: Pre-emergence herbicidal activity, cool season; format: in vivo, Agrostis stolonifera; conditions: GR80 = lowest tested rate (300, 100, 30, 10 g/ha) with 80% or greater inhibition; approx. 14 days after treating; 18/13° C.
Method in brief: as §1

[10] = tested on: AGRRE (quackgrass (seedling)); experiment: Pre-emergence herbicidal activity, cool season; format: in vivo, Elymus repens; conditions: GR80 = lowest tested rate (300, 100, 30, 10 g/ha) with 80% or greater inhibition; approx. 14 days after treating; 18/13° C.
Experimental: as §4, §5, §6, §7

DATST (jimsonweed) = experiment: Pre-emergence herbicidal activity, warm season; format: in vivo, Datura stramonium; conditions: GR80 = lowest tested rate (300, 100, 30, 10 g/ha) with 80% or greater inhibition; approx. 14 days after treating; 30/21° C.
Experimental: as §4, §5, §6, §7

PANDI (fall panicum) = experiment: Pre-emergence herbicidal activity, warm season; format: in vivo, Panicum dichotomiflorum; conditions: GR80 = lowest tested rate (300, 100, 30, 10 g/ha) with 80% or greater inhibition; approx. 14 days after treating; 30/21° C.
Method in brief: as §2

**Q.** With CCN(CC)C(=O)n1cnc(S(=O)(=O)C(F)(F)c2ccccc2)n1 [Example 5] as the compound, how does the “Pre-emergence activity (GR80) SOLNI” value (SOLNI (black nightshade)) read?
**A.** 300 g/ha

**Q.** What about the “Pre-emergence activity (GR80) AMARE” value (AMARE (redroot pigweed)) of the same compound?
**A.** 100 g/ha

**Q.** And the “Pre-emergence activity (GR80) CHEAL” value [1]?
**A.** 300 g/ha

**Q.** What about the “Pre-emergence activity (GR80) CIRAR” value [2] of the same compound?
**A.** 100 g/ha

**Q.** What about the “Pre-emergence activity (GR80) ECHCG” value (ECHCG (barnyardgrass)) of the same compound?
**A.** 300 g/ha

**Q.** What about the “Pre-emergence activity (GR80) PANMI” value [3] of the same compound?
**A.** 100 g/ha

**Q.** And the “Pre-emergence activity (GR80) SORHA” value [4]?
**A.** 100 g/ha

**Q.** And the “Pre-emergence activity (GR80) SETFA” value (SETFA (giant foxtail))?
**A.** 100 g/ha

**Q.** And the “Pre-emergence activity (GR80) BRAPP” value [5]?
**A.** 300 g/ha

**Q.** What about the “Pre-emergence activity (GR80) DIGSA” value (DIGSA (large crabgrass)) of the same compound?
**A.** 100 g/ha

**Q.** What about the “Pre-emergence activity GR80, GALAP” value [6] of the same compound?
**A.** [empty]

**Q.** What about the “Pre-emergence activity GR80, POLCO” value (POLCO (wild buckwheat)) of the same compound?
**A.** [empty]

**Q.** And the “Pre-emergence activity GR80, SINAR” value (SINAR (wild mustard))?
**A.** 100 g/ha

**Q.** What about the “Pre-emergence activity GR80, KCHSC” value (KCHSC (kochia)) of the same compound?
**A.** [empty]

**Q.** What about the “Pre-emergence activity GR80, VERPE” value [7] of the same compound?
**A.** 100 g/ha

**Q.** And the “Pre-emergence activity GR80, SASKR” value (SASKR (russian thistle))?
**A.** 300 g/ha

**Q.** And the “Pre-emergence activity GR80, STEME” value (STEME (common chickweed))?
**A.** [empty]

**Q.** What about the “Pre-emergence activity GR80, LAMPU” value [8] of the same compound?
**A.** [empty]

**Q.** What about the “Pre-emergence activity (GR80) ALOMY” value (ALOMY (blackgrass)) of the same compound?
**A.** * (activity observed, at least at highest rate, but <80% inhibition)

**Q.** And the “Pre-emergence activity (GR80) SETVI” value (SETVI (green foxtail))?
**A.** 100 g/ha

**Q.** And the “Pre-emergence activity (GR80) AGSST” value [9]?
**A.** 30 g/ha

**Q.** What about the “Pre-emergence activity (GR80) AGRRE” value [10] of the same compound?
**A.** * (activity observed, at least at highest rate, but <80% inhibition)

**Q.** Which results are given for CCOC(=O)C(F)(F)S(=O)(=O)c1ncn(C(=O)N(CC)CC)n1 [Example 7]?
**A.** Pre-emergence activity (GR80) AMARE (AMARE (redroot pigweed)): 300 g/ha; Pre-emergence activity (GR80) DATST (DATST (jimsonweed)): 300 g/ha; Pre-emergence activity (GR80) CHEAL [1]: 300 g/ha; Pre-emergence activity (GR80) ECHCG (ECHCG (barnyardgrass)): 300 g/ha; Pre-emergence activity (GR80) PANMI [3]: 300 g/ha; Pre-emergence activity (GR80) SORHA [4]: 300 g/ha; Pre-emergence activity (GR80) SETFA (SETFA (giant foxtail)): 300 g/ha; Pre-emergence activity (GR80) PANDI (PANDI (fall panicum)): 300 g/ha; Pre-emergence activity (GR80) BRAPP [5]: 300 g/ha; Pre-emergence activity (GR80) DIGSA (DIGSA (large crabgrass)): 300 g/ha; Pre-emergence activity GR80, GALAP [6]: [empty]; Pre-emergence activity GR80, POLCO (POLCO (wild buckwheat)): [empty]; Pre-emergence activity GR80, SINAR (SINAR (wild mustard)): * (activity observed, at least at highest rate, but <80% inhibition); Pre-emergence activity GR80, KCHSC (KCHSC (kochia)): [empty]; Pre-emergence activity GR80, VERPE [7]: [empty]; Pre-emergence activity GR80, SASKR (SASKR (russian thistle)): [empty]; Pre-emergence activity GR80, STEME (STEME (common chickweed)): 30 g/ha; Pre-emergence activity GR80, LAMPU [8]: [empty]; Pre-emergence activity (GR80) ALOMY (ALOMY (blackgrass)): * (activity observed, at least at highest rate, but <80% inhibition); Pre-emergence activity (GR80) AGSST [9]: 300 g/ha; Pre-emergence activity (GR80) AGRRE [10]: 300 g/ha
